According to patent US8536214B2, “Indane derivatives as AMPA receptor modulators” (priority 2008, dated 2013):

Biological target: T1, AMPA (GluR1) receptor (Homo sapiens, UniProt P42261)
T1 construct: expressed in transfected cells; host or cells: HEK cells (HEK.GluR1(i)), kept under hygromycin selection
Test: Ca2+ influx fluorescence assay (FLEXstation, Fluo-3)
Type: cell-based
Conditions: HEK.GluR1(i) cells, glutamate +/- test compound, Ca2+ influx measured with fluo3; read-out: EC50, positive modulation of the AMPA receptor
From the text: The compounds in this invention may be tested using a biological assay which measures Ca^2+ influx mediated through positive modulation of the AMPA (GluR1) receptor using standard techniques in the art such as, but not limited to, a FLEXstation (manufactured by Molecular Devices, Sunnyvale, Calif.). An optical readout using fluorescent probes is employed to measure ion channel dependent changes in intracellular ion concentration or membrane potential. The assay utilises the Ca^2+ conductance of functional homomeric GluR1(i) AMPA receptors to generate glutamate-dependent Ca^2+ responses. Influx of Ca^2+ through the ion channel is measured indirectly through an increase in intracellular Ca^2+ levels using the calcium sensitive dye such as, but not limited to, Fluo-3 (Molecular Devices, Sunnyvale, Calif.) in FLEXstation. A positive AMPA receptor modulator, in the presence of glutamate, will result in an influx of Ca^2+ through the ion channel which can be measured indirectly through an increase in intracellular Ca2+ levels using the calcium sensitive dye Fluo-3 in FLEXstation.
HEK.GluR1(i) cells were maintained in DMEM supplemented with 10% fetaclone II, 1% non-essential amino acids and 150 μg/mL hygromycin, at 37° C./5% CO2. […]

T1 sequence (P42261 19-906 isoform P42261-2 limits assumed, species assumed): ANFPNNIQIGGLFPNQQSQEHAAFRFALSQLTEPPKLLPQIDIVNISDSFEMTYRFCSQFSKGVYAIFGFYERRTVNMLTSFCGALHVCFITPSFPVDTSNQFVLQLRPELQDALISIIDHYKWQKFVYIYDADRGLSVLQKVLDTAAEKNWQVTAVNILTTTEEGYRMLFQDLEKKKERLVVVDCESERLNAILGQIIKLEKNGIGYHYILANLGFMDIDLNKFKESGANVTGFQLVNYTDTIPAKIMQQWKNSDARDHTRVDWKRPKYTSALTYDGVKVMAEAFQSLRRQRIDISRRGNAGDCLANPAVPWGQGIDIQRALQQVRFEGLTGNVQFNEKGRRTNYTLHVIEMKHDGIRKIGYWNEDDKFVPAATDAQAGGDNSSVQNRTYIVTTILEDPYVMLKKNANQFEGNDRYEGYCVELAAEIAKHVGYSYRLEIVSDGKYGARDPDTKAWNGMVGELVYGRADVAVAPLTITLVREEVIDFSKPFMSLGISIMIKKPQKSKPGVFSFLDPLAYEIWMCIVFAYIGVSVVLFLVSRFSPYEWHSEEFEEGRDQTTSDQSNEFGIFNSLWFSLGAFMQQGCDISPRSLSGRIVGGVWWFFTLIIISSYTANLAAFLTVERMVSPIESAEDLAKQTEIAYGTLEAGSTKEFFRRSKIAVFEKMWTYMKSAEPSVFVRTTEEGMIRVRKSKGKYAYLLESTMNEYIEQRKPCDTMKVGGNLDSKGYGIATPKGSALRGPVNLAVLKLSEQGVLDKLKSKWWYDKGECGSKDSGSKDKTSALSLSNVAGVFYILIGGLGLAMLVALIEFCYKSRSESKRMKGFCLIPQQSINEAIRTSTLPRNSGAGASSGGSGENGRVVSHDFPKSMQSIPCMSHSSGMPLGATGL

EC50: 2.5 µM
Compound: O=S(=O)(N[C@H]1Cc2ccc(Cn3cc(CO)c(C(F)(F)F)n3)cc2C1)c1ccco1 [Example 18, (S)—N-(5-((4-(hydroxymethyl)-3-(trifluoromethyl)-1H-pyrazol-1-yl)methyl)-2,3-dihydro-1H-inden-2-yl)furan-2-sulfonamide]
